The subject of assay [1] is hyperalgesia rats induced with an acidic physiological saline. Kind of assay: Effect for pain relief in a hyperalgesia model of rat (acidic physiological saline-induced hyperalgesia, von Frey test). Format: in vivo. The note with it: male SD rats, orally administered 5 and 10 mg/kg, 0.5-3 hours after administration (FIG. 1). The procedure: Test Example 1: Effect for Pain Relief in a Hyperalgesia Model of Rat
An acidic physiological saline-induced hyperalgesia model, which is known as a model of diseases accompanied by chronic musculoskeletal pain was made according to the method described in Muscle & Nerve 24, p. 37-46 (2001) with a slight modification.
In this test, male SD rats (Sprague-Dawley rats; 6 weeks of age at the start of the test) were employed. Under ether anesthesia, 100 μl of physiological saline adjusted to pH 4 with acetic acid was injected to the rat's right gastrocnemius muscle twice at an interval of 5 days. At 10th and 11th days from the 2nd injection, the following test was conducted. […] In this connection, the pain threshold of normal rats was approximately 11 g.
The above hyperalgesia rats induced with an acidic physiological saline were placed in a stainless steel cage (750width×210depth×170height in mm) and accommodated thereto for at least 20 minutes. Thereafter, the pain threshold (g) was determined prior to administration of the test compound (0 hour) and 0.5 hour, 1 hour, 1.5 hours, 2 hours and 3 hours after the administration. […]
Hyperalgesia was evaluated by the von Frey test, and the results were indicated by the thresholds (g). […] The pain threshold (g) was calculated according to the W. J. Dixon's up-down method (Annual Review of Pharmacology and Toxicology, 20, p. 441-462 (1980)).

For assay [2], the system named is acidic physiological saline-induced hyperalgesia model. Kind of assay: Preventive effect on development of hyperalgesia in a rat model (acidic physiological saline, von Frey test). The note with it: male SD rats, 3 mg/kg orally once daily for 10 days, measured on the day following the final administration (FIG. 2). Format: in vivo. Here is the method:
Test Example 2: Preventive Effect on Development of Hyperalgesia in a Rat Model The following experiment was carried out according to the method as described in Test Example 1. In this test, male SD rats (Sprague-Dawley rats; 6 weeks of age at the start of the test) were employed as 10 rats for each treatment-group. Under ether anesthesia, 100 μl of physiological saline adjusted to pH 4 with acetic acid was injected to the rat's right gastrocnemius muscle twice at an interval of 5 days. Thirty minutes after the 2nd injection and once daily thereafter, a test compound or solvent was administered repeatedly at a volume of 5 ml/kg to the above rats for a total of 10 days. The test compound was used as a suspension in 0.5% MC aqueous solution and orally administered (a group treated with Test Compound), and in a group to which a solvent was administered 0.5% MC aqueous solution alone was orally administered (a group treated with Solvent). On the day following the final administration, the pain threshold (g) was measured in the same manner as the von Frey test as described in Test Example 1. The above rats were placed in a stainless steel cage (750width×210depth×170height in mm) and accommodated thereto for at least 20 minutes; after that the measurement was conducted. From the above results, the followings were elucidated.

Consider `CCn1c(=O)c2c(nc(/C=C/c3ccc(OC)c(OC)c3)n2C)n(CC)c1=O` [Compound 2], for which, in assay [1], the “pain threshold in comparison with that of the group treated with Solvent” value is “greatly increased”. Moreover, in assay [2], the “pain threshold (development of hyperalgesia)” value was “no decrease”.
